According to paper PMC7246923, “Inhibition of Xanthine Oxidase-Catalyzed Xanthine and 6-Mercaptopurine Oxidation by Flavonoid Aglycones and Some of Their Conjugates” (International Journal of Molecular Sciences, 2020):
Like-named read-outs stand apart in the source and are kept apart here.

Tests used:
hyperuricaemic mice = details: cited from earlier work; for serum uric acid levels: orally administered; for serum uric acid concentrations: hyperuricemic mice, per os, API 50 and 100 mg/kg, KAE 50 and 100 mg/kg, LUT 100 mg/kg
[1] = target: T1, Xanthine oxidase (XO; from bovine milk) (Bos taurus, UniProt P80457); assay: XO-catalyzed 6-mercaptopurine oxidation (6-thiouric acid formation), HPLC; assay type: biochemical
T1 construct: Xanthine oxidase (XO; from bovine milk); purchased Sigma-Aldrich; host or cells: bovine milk
T1 sequence (P80457 whole entry): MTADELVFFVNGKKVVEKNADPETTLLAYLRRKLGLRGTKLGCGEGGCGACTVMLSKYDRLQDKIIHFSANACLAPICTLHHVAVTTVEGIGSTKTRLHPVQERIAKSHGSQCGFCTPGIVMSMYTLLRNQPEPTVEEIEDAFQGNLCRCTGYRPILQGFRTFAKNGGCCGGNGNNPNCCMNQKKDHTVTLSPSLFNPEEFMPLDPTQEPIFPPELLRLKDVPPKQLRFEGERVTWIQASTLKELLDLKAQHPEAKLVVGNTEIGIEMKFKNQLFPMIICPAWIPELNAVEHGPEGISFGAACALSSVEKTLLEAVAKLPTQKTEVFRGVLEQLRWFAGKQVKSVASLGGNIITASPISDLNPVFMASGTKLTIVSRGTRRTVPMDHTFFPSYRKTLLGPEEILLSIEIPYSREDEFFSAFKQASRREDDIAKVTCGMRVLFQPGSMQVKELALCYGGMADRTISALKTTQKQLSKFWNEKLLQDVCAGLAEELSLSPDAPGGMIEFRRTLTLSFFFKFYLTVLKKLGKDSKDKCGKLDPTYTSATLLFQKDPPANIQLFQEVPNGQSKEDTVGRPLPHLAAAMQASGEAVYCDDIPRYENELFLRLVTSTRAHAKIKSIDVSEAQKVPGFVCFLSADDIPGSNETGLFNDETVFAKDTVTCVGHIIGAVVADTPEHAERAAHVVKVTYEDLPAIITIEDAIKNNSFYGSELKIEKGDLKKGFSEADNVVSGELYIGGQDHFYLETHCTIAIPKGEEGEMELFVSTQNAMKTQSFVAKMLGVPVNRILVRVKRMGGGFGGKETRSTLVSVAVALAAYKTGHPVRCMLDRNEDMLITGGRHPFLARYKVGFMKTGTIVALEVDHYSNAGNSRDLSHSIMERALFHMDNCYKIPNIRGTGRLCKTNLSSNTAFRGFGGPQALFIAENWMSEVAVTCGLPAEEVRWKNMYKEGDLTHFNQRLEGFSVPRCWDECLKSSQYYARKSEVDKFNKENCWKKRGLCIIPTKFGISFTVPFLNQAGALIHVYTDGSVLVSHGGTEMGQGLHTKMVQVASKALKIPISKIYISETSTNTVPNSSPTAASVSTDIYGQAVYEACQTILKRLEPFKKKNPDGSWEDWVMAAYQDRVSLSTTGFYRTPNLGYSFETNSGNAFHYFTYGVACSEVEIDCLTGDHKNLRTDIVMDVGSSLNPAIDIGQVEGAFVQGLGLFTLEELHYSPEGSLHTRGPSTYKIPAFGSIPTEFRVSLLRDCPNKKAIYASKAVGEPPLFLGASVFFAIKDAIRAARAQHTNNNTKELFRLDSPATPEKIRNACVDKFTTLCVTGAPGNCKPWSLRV
Description: (§1) Chrysin-7-glucuronide (C7G) and 6-thiouric acid were purchased from Carbosynth (Berkshire, UK). Chrysin-7-sulfate (C7S) was synthetized as described. Stock solutions of flavonoids (each 2 mM) were prepared in dimethyl sulfoxide (DMSO) and stored at −20 °C.
(§2) To test the inhibitory effects of flavonoids and their metabolites on the XO-catalyzed oxidation of xanthine and 6MP, the previously reported methods were applied without modifications. […] In each experiment, solvent controls (DMSO) were used. Metabolite formation (% of control) was plotted vs. the inhibitor concentrations in decimal logarithmic scale. IC50 values were evaluated by sigmoidal fitting, employing GraphPad Prism 8 software (San Diego, CA, USA).
(§3) After the in vitro XO assays, xanthine and uric acid as well as 6MP and 6-thiouric acid were quantified by the HPLC-UV methods described in our previous report, without any modifications.

[2] = target: T1, Xanthine oxidase (XO; from bovine milk); assay: XO-catalyzed xanthine oxidation (uric acid formation), HPLC; assay type: biochemical; details: for IC50 (xanthine)/IC50 (6MP): ratio of IC50 values of xanthine and 6MP assays; for IC50: substrate xanthine 5 μM, inhibitor 0–20 μM
Description: as §1, §2, §3

normal mice = system: normal mice; design: method as in PMID 17666819; details: per os; cited from earlier work
[3] = substrate 6MP 5 μM, inhibitor 0–20 μM, read-out: IC50(6MP)
[4] = hyperuricaemic mice, LUT 16–100 mg/kg, LUT-7-O-glucoside 50 and 100 mg/kg

Compound	serum uric acid concentrations (hyperuricaemic mice)	IC50 [1, 3]	IC50 (xanthine)/IC50 (6MP) [2]	IC50 [2]	further results
O=c1cc(-c2ccc(O)cc2)oc2cc(O)cc(O)c12 [Apigenin, 5,7,4’-trihydroxyflavone]	significantly decreased	90 nM	3.00	270 nM	serum uric acid levels (hyperuricaemic mice; hyperuricaemic mice, API 175–700 mg/kg): did not affect; IC50 ([1]; substrate 6MP 5 μM, read-out: IC50 values on 6MP oxidation): < 100 nM
O=c1cc(-c2ccccc2)oc2cc(O)cc(O)c12 [Chrysin, 5,7-dihydroxyflavone]			3.18		IC50 [1]: 220 nM
O=C(O)[C@H]1O[C@@H](Oc2cc(O)c3c(=O)cc(-c4ccccc4)oc3c2)[C@H](O)[C@@H](O)[C@@H]1O [Chrysin-7-glucuronide, chrysin-7-glucuronide]		> 20000 nM		> 20000 nM	
O=c1cc(-c2ccccc2)oc2cc(OS(=O)(=O)O)cc(O)c12 [Chrysin-7-sulfate, chrysin-7-sulfate]		2230 nM		> 20000 nM	
O=c1c(O)c(-c2ccc(O)c(O)c2)oc2cc(O)ccc12 [Fisetin, 3,7,3′,4′-tetrahydroxyflavone]		1100 nM	0.78	860 nM	
COc1cc(-c2oc3cc(O)ccc3c(=O)c2O)ccc1O [Geraldol, 3’-O-methylfisetin]		1190 nM	0.57	680 nM	
O=c1c(O)c(-c2ccc(O)cc2)oc2cc(O)cc(O)c12 [Kaempferol, 3,5,7,4′-tetrahydroxyflavone]	significantly decreased				uric acid levels (normal mice): decreased
O=c1cc(-c2ccc(O)c(O)c2)oc2cc(O[C@@H]3O[C@H](CO)[C@@H](O)[C@H](O)[C@H]3O)cc(O)c12 [LUT-7-O-glucoside]					serum uric acid levels (hyperuricaemic mice; [4]): did not affect
O=c1cc(-c2ccc(O)c(O)c2)oc2cc(O)cc(O)c12 [Luteolin, 5,7,3′,4′-tetrahydroxyflavone]	significantly decreased	270 nM	0.59	160 nM	uric acid levels (hyperuricaemic mice; hyperuricaemic mice, i.p. administration, 50 mg/kg): slight but significant decrease; serum uric acid levels (hyperuricaemic mice; [4]): did not affect
